The values that follow come from article PMC9229564 (Viruses, 2022).

Entries after “also recorded” stand apart in the source; their conditions may differ. Like-named read-outs stand apart in the source and are kept apart here. A value given as a limit tells only on which side of the number the result lay.

As a reminder, the Ki is a measure of affinity in units of concentration, obtained from inhibition or displacement. A word on the EC50: it is the concentration that produces a half-maximal response. A lower EC50 goes with a more potent agent.

For data set [1], the target named is T1, human SK2 (Homo sapiens, UniProt Q9NRA0).
T1 sequence (Q9NRA0 1-654): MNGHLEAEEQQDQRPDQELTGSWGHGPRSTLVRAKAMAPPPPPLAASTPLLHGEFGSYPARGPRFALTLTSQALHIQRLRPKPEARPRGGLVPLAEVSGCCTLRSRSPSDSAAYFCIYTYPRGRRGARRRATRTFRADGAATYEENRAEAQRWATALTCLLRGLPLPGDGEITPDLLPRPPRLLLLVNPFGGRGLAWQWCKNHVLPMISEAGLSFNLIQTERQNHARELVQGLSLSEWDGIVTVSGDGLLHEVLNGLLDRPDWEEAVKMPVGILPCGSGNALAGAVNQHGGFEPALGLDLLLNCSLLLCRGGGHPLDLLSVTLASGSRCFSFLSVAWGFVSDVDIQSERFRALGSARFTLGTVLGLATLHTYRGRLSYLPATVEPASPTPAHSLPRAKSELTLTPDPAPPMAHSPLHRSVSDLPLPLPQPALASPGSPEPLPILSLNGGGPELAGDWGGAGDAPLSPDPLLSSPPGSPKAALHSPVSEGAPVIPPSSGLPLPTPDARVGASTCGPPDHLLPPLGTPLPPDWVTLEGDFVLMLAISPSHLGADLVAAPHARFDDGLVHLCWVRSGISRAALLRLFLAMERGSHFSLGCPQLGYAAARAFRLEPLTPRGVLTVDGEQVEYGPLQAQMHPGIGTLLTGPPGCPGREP
Put plainly: SK2 inhibition (Ki). Format: biochemical.

The target in data set [2] is human SK1 (Homo sapiens, UniProt Q9NYA1). Description: SK1 inhibition (Ki). In kind it is biochemical.
Sequence of human SK1 (Q9NYA1 whole entry): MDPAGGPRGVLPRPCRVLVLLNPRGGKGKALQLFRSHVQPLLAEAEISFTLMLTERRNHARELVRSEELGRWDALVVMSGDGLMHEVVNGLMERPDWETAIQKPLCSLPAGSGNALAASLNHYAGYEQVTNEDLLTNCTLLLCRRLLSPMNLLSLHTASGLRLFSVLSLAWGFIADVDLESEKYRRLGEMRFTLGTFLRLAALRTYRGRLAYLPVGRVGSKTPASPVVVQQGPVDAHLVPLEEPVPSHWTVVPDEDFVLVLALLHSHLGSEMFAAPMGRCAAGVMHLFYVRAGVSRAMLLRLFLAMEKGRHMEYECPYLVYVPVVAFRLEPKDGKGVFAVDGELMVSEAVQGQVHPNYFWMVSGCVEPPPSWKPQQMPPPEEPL
Data set [3] deals with CHIKV. Description: CHIKV infection of HeLa cells, immunofluorescence high-content imaging. Format: cell-based, Chikungunya virus (clone 181/25). To be noted: for inhibition of CHIKV infection (nsP3 expression), screen: 20 µM, cutoff at least 50% inhibition with at least 75% cell viability; for EC50: HeLa cells, CHIKV infection, increasing concentration of inhibitor.
The test system of data set [4] is SK1 and SK2. More on the design: method as in earlier work. To be noted: yeast assay; more potent at SK1 than SK2; cited from earlier work.
Data set [5] relates to CHIKV. The settings on record: previous work; cited from earlier work.
Data set [6] has as its system CHIKV. Description: qRT-PCR of viral nsP1 expression in CHIKV-infected HeLa cells. The settings on record: 20 µM, 1 h pre-treatment, MOI 1, 24 h. In kind it is cell-based, Chikungunya virus (clone 181/25).
Data set [7] relates to HeLa cells. Put plainly: virus-free cell viability assay. Format: cell-based.
For data set [8], the system named is CHIKV. Put plainly: plaque assay of infectious virus release (supernatants on Vero E6 cells). The settings on record: 25 µM, supernatant 24 h post-infection, plaques on Vero E6 over 72 h. Format: cell-based, Chikungunya virus (clone 181/25).
Where [9] appears, read: 1 h pre-treatment, HeLa, MOI = 1, 24 h.

As to `CCCCCOc1ccc2cc(-c3noc([C@@H]4[C@@H](O)CCN4C(=N)N)n3)ccc2c1` [SLC5111312], the Ki in data set [1] was found to be 330 ± 70 nM; in data set [2], 360 ± 90 nM. In addition, in data set [3] (setting [9]), the “inhibition of CHIKV infection (nsP3 expression), screen” value (“inhibition of CHIKV infection … screen” below) is recorded as “significantly inhibited CHIKV infection”. A half-maximal effect in data set [3] (Chikungunya virus, HeLa) (EC50) was put at 11800 nM. Moreover, in data set [4], the “potency at SK1 relative to SK2” value is 2 fold.
`O=C(NCc1ccncc1)C12CC3CC(C1)CC(c1ccc(Cl)cc1)(C3)C2` [ABC294640]: the “timing of effective inhibition of CHIKV infection” value in data set [5] is recorded as “most effective at inhibiting CHIKV infection”.
Turning to `CCCCCCCCCCCCc1ccc(CN(C)C2CCCC2O)cc1` (stereo not drawn) [SLL3041783], the Ki in data set [1] (read-out: SK2 Ki) is more than 3000 nM; in data set [2] (read-out: SK1 Ki) it was 2400 ± 610 nM. For the same molecule, the “inhibition of CHIKV infection … screen” value in data set [3] (setting [9]) is recorded as “significantly inhibited CHIKV infection”. In addition, in data set [3] (Chikungunya virus, HeLa), the EC50 stood at 3330 nM.
Regarding `N=C(N)N1CCC[C@H]1Cc1nc(-c2ccc(Oc3nc(Br)cs3)cc2)no1` [SLC4091425], the Ki in data set [1] (read-out: SK2 Ki) and in data set [2] (read-out: SK1 Ki) was more than 3000 nM in each case. For the same molecule, the “inhibition of CHIKV infection … screen” value in data set [3] (setting [9]) was “significantly inhibited CHIKV infection”. In data set [3] (Chikungunya virus, HeLa), this molecule displayed an EC50 of 3350 nM.
For the molecule `CCCCCCCCCCCCc1ccc(CN2CCCC2CO)cc1` (stereo not drawn) [SLL3071511], in data set [1] (read-out: SK2 Ki), the Ki amounted to 660 ± 110 nM. Also, the “viral nsP1 expression” value in data set [6] is “significantly diminished”. Besides, the non-toxic concentration entry in data set [7] is given as “up to 50 µM”. Besides, the “inhibition of CHIKV infection … screen” value in data set [3] (setting [9]) is “significantly inhibited CHIKV infection”. The “viral glycoprotein (E2) expression” value in data set [3] (1 h pre-treatment, HeLa, MOI = 1, 24 h, Supplementary Figure S3) is listed as “decreased”. Further, the EC50 came to 2900 nM in data set [3] (Chikungunya virus, HeLa) and 2910 nM in data set [3]. Besides, the “anti-CHIKV activity at higher MOI” value in data set [3] (HeLa, MOI = 10, 24 h) is given as “retained significant anti-CHIKV activity”. The “timing of effective inhibition of CHIKV infection” value in data set [3] (treatment 1 h before, along with or 1 h after infection, MOI 1) was “highest inhibitory effect occurring when the compound is used prior to infection; also recorded: maximal inhibition occurring when SLL3071511 is added prior to infection”. In addition, the “plaque counts (infectious virus release)” value in data set [8] was “significantly diminished”.
